This passage reports CC50, Activity and A ctivity results from ChEMBL document CHEMBL1142639, “New triterpenoid saponins from the sponge Melophlus isis” (2000).

Structures are written as SMILES. Values after ≈ are worked out from the molar mass of the structure shown. Active and inactive are the calls of the source. The calls are words filed in the database; no cut-off is given here.

Assay [1] has as its system K562. The assay can be described thus: Cytotoxicity against human K562 cells. The conditions noted are these: read-out: LC50 (the source's name). The format is functional.
Assay [2] has as its system Photobacterium phosphoreum. Nature of the assay: Antibacterial activity against Photobacterium phosphoreum at 100 ug/mL by paper disk method. The format is functional, organism-based.
The test system of assay [3] is Photobacterium leiognathi. The assay can be described thus: Antibacterial activity against Photobacterium leiognathi at 100 ug/mL by paper disk method. The format is functional, organism-based.
Assay [4] relates to Vibrio harveyi. The assay can be described thus: Antibacterial activity against Vibrio harveyi at 100 ug/mL by paper disk method. The format is functional, organism-based.

With `CC(=O)N[C@H]1[C@H](O[C@@H]2CO[C@@H](O[C@H]3CC[C@]4(C)C5=C(CC[C@H]4C3(C)C)C3=CC[C@H]([C@H](C)CC(=O)C=C(C)C)[C@@]3(C)CC5)[C@H](O[C@@H]3O[C@H](CO[C@@H]4O[C@H](CO)[C@@H](O)[C@H](O)[C@H]4O[C@@H]4O[C@H](CO)[C@@H](O)[C@H](O)[C@H]4O)[C@@H](O)[C@H](O)[C@H]3NC(C)=O)[C@H]2O)O[C@H](CO)[C@H](O)[C@@H]1O` [SARASINOSIDE A3], the CC50 in assay [1] was found to be 17.1 µg/mL (≈ 13.3 µM).

On to `CC(=O)N[C@H]1[C@H](O[C@@H]2CO[C@@H](O[C@H]3CC[C@]4(C)C5=C(CC[C@H]4C3(C)C)[C@@H]3CC[C@H]([C@H](C)CC(=O)C=C(C)C)[C@@]3(C)CC5)[C@H](O[C@@H]3O[C@H](CO[C@@H]4O[C@H](CO)[C@@H](O)[C@H](O)[C@H]4O[C@@H]4O[C@H](CO)[C@@H](O)[C@H](O)[C@H]4O)[C@@H](O)[C@H](O)[C@H]3NC(C)=O)[C@H]2O)O[C@H](CO)[C@H](O)[C@@H]1O` [SARASINOSIDE A1], for which, in assay [1], the CC50 amounted to 6.5 µg/mL (≈ 5.04 µM).

With `CO[C@H]1C[C@H]([C@H](C)CC(=O)C=C(C)C)[C@@]2(C)CC[C@@]3(O)C(=C12)CC[C@H]1C(C)(C)[C@@H](O[C@@H]2OC[C@@H](O[C@@H]4O[C@H](CO)[C@H](O)[C@H](O)[C@H]4NC(C)=O)[C@H](O)[C@H]2O[C@@H]2O[C@H](CO[C@@H]4O[C@H](CO)[C@@H](O)[C@H](O)[C@H]4O[C@@H]4O[C@H](CO)[C@@H](O)[C@H](O)[C@H]4O)[C@@H](O)[C@H](O)[C@H]2NC(C)=O)CC[C@@]13C` [SARASINOSIDE I2], the outcome in assay [2], in assay [3] and in assay [4] was inactive. Also, the CC50 in assay [1] is above 100 µg/mL.

With `CC(=O)N[C@H]1[C@H](O[C@@H]2CO[C@@H](O[C@H]3CC[C@@]4(C)[C@@H](CCC5=C6[C@H](O)C[C@H]([C@H](C)CC(=O)C=C(C)C)[C@@]6(C)CC[C@@]54O)C3(C)C)[C@H](O[C@@H]3O[C@H](CO[C@@H]4O[C@H](CO)[C@@H](O)[C@H](O)[C@H]4O[C@@H]4O[C@H](CO)[C@@H](O)[C@H](O)[C@H]4O)[C@@H](O)[C@H](O)[C@H]3NC(C)=O)[C@H]2O)O[C@H](CO)[C@H](O)[C@@H]1O` [SARASINOSIDE H1], the result in assay [2], in assay [3] and in assay [4] was inactive. In assay [1], the CC50 was above 100 µg/mL.

As for `CO[C@@H]1C[C@H]([C@H](C)CC(=O)C=C(C)C)[C@@]2(C)CC[C@@]3(O)C(=C12)CC[C@H]1C(C)(C)[C@@H](O[C@@H]2OC[C@@H](O[C@@H]4O[C@H](CO)[C@H](O)[C@H](O)[C@H]4NC(C)=O)[C@H](O)[C@H]2O[C@@H]2O[C@H](CO[C@@H]4O[C@H](CO)[C@@H](O)[C@H](O)[C@H]4O[C@@H]4O[C@H](CO)[C@@H](O)[C@H](O)[C@H]4O)[C@@H](O)[C@H](O)[C@H]2NC(C)=O)CC[C@@]13C` [SARASINOSIDE H2], the outcome in assay [2], in assay [3] and in assay [4] was inactive. The CC50 in assay [1] is above 100 µg/mL.

With `CC(=O)N[C@H]1[C@H](O[C@@H]2CO[C@@H](O[C@H]3CC[C@@]4(C)[C@@H](CCC5=C6[C@@H](O)C[C@H]([C@H](C)CC(=O)C=C(C)C)[C@@]6(C)CC[C@@]54O)C3(C)C)[C@H](O[C@@H]3O[C@H](CO[C@@H]4O[C@H](CO)[C@@H](O)[C@H](O)[C@H]4O[C@@H]4O[C@H](CO)[C@@H](O)[C@H](O)[C@H]4O)[C@@H](O)[C@H](O)[C@H]3NC(C)=O)[C@H]2O)O[C@H](CO)[C@H](O)[C@@H]1O` [SARASINOSIDE I1], the outcome in assay [2] and in assay [4] was inactive. Besides, the A ctivity result in assay [3] was “inactive”. Besides, the CC50 in assay [1] is above 100 µg/mL.
